Assay results reported in patent US12501898B2, “Synergistic pesticidal compositions and methods for delivery of active ingredients” (0903608 B.C. Ltd., priority 2017, dated 2025).
Values after ≈ are worked out from the molar mass of the structure shown. Values joined by “and” are separate entries in the source; they are usually repeats but may differ in a detail not shown here. Equal entries are not always repeated.

How the values were obtained:
Fusarium oxysporum = assay: Synergistic Growth Inhibition Assay (MIC / FIC index, resazurin) against Fusarium oxysporum; assay type: cell-based; details: for MIC (B): Compound B (unsaturated aliphatic acid) alone, Fusarium oxysporum
Method: (§1) In some embodiments, the synergistic action between the pesticidal active ingredient, and the C6-C10 unsaturated aliphatic acid components of the pesticidal compositions according to embodiments of the present disclosure was tested using a Synergistic Growth Inhibition Assay, which is derived from and related to a checkerboard assay as is known in the art for testing of combinations of antimicrobial agents. In the Synergistic Growth Inhibition Assay used in accordance with some embodiments of the present disclosure, multiple dilutions of combinations of pesticidal active ingredient and C6-C10 (or alternatively C11 or C12) unsaturated aliphatic acid agents are tested in individual cells for inhibitory activity against a target pest or pathogenic organism. In one such embodiment, the combinations of pesticidal active ingredient and C6-C10 unsaturated aliphatic acid agents may preferably be tested in decreasing concentrations. In a further such embodiment, the combinations of pesticidal active ingredient and C6-C10 (or alternatively C11 or C12) unsaturated aliphatic acid agents may be tested in increasing concentrations. These multiple combinations of the pesticidal active ingredient and C6-C10 (or alternatively C11 or C12) unsaturated aliphatic acid agents may be prepared in 96-well microtiter plates. In one such embodiment, the Synergistic Growth Inhibition Assay then comprises rows which each contain progressively decreasing concentrations of the pesticidal active ingredient and C6-C10 (or alternatively C11 or C12) unsaturated aliphatic acid agents to test for the MIC of the agents in combination at which growth of the target pest or pathogen is inhibited. Thus, each well of the microtiter plate is a unique combination of the two agents, at which inhibitory efficacy of the combination against the target pest or pathogen can be determined.
(§2) In one embodiment according to the present disclosure, for each row of microtiter cells in the Synergistic Growth Inhibition Assay, the FIC index is calculated from the lowest concentration of the pesticidal active ingredient and C6-C10 unsaturated aliphatic acid agents necessary to inhibit growth of a target pest or pathogen. The FIC of each component is derived by dividing the concentration of the agent present in that well of the microtiter plate by the minimal inhibitory concentration (MIC) needed of that agent alone to inhibit growth of the target pest or pathogen. The FIC index is then the sum of these values for both agents in that well of the microtiter plate. […] Fractional inhibitory concentration indices may then used as measure of synergy. […] When the FIC index is equal to 1, the combination is additive.
(§3) In some embodiments of the present disclosure, the exemplary Synergistic Growth Inhibition Assay was conducted starting with an initial composition comprising a pesticidal active ingredient agent at its individual MIC and a C6-C10 (or alternatively C11 or C12) unsaturated aliphatic acid agent at its individual MIC in the first well of a row on a 96 well microtiter plate. Then, serial dilutions of these initial compositions in successive wells in the row of the microtiter plate were used to assay the pesticidal composition under the same conditions to determine the concentration of the composition combining the two agents corresponding to the microtiter well in which growth inhibition of the target pest or organism ceases.
In some embodiments, Fusarium oxysporum was used as a representative pest organism or pathogen to determine synergy in pesticidal compositions comprising a pesticidal active ingredient agent and a C6-C10 (or alternatively C11 or C12) unsaturated aliphatic acid agent. Resazurin dye (also known as Alamar blue dye) was used as an indicator to determine the presence of growth or inhibition of growth of Fusarium oxysporum in the wells of the 96 well microtiter plates used in the exemplary Synergistic Growth Inhibition Assay.

Botrytis cinerea = assay: Synergistic Growth Inhibition Assay (MIC / FIC index, resazurin) against Botrytis cinerea; assay type: cell-based
Method: as §1
as §2, with “additive. […]” for “additive.”

Sclerotinia sclerotiorum = assay: Synergistic Growth Inhibition Assay (MIC / FIC index) against Sclerotinia sclerotiorum; assay type: cell-based; details: for MIC (B): individual compound alone, incubation 7 days
Method: as §1, §2, §3
A culture of the representative fungal pathogen, namely Fusarium oxysporum or Botrytis cinerea, for example, is grown to exponential phase in potato dextrose broth (PDB).

[1] = Solubility / effective solubilized concentration in 10% DMSO/90% PDB by HPLC
Method: This solution was diluted 10-fold in potato dextrose broth (PDB) to give a concentration of 0.05 mg/mL in 10% DMSO/90% PDB.
This solution was diluted 10-fold in potato dextrose broth (PDB) to give a concentration of 0.1 mg/mL in 10% DMSO/90% PDB.

Trichoplusia ni [2] = assay: In-vitro insecticidal efficacy on treated modified McMorran artificial diet (Colby synergy); assay type: in vivo, Trichoplusia ni (cabbage looper); details: Pylon […]
Method: A stock solution was prepared for each of trans-2-hexenoic acid and trans-3-hexenoic acid (both available from Sigma-Aldrich, St. Louis, MO, USA), by dissolving each exemplary unsaturated aliphatic acid in 100% dimethylsulfoxide (DMSO) at a concentration of 20 mg/mL (20,000 ppm). A stock solution for the potassium salt of (2E,4E)-2,4-hexadienoic acid was prepared by dissolving the salt in water to form a 20 mg/mL (20,000 ppm) solution.
An artificial diet suitable for Trichoplusia ni (cabbage looper caterpillar) was prepared according to the modified McMorran artificial diet recipe known in the entomology field (containing agar, casein, potassium hydroxide, alphacel, Wesson's salt mix, sugar, toasted wheat germ, choline chloride, ascorbic acid, methyl paraben, aureomycin, linseed oil and vitamin solution).
The treated artificial diet was then used to fill each well of a 24-well treatment plate with approximately 0.5 mL of artificial diet, which was allowed to solidify at room temperature and stored overnight at approximately 4 C. […] Each experiment contained 3 replicates, and was repeated at least 3 times.
(§4) While for SF<1, antagonism is present and for SF=1, the efficacy of the compounds is merely additive.

Trichoplusia ni [3] = assay: In-planta insecticidal efficacy on sprayed green cabbage plants (Colby synergy); assay type: in vivo, Trichoplusia ni (cabbage looper); details: […] Pylon, 0.06 mg/mL acid (salt)
Method: A stock solution for the potassium salt of (2E,4E)-2,4-hexadienoic acid was prepared by dissolving the salt in water to form a 20 mg/mL (20,000 ppm) solution.
Each experiment was repeated at least 3 times.
as §4

[4] = individual compound alone, incubation 48 hours

## N#Cc1c[nH]cc1-c1cccc2c1OC(F)(F)O2 [Fludioxonil, fludioxonil, reference compound]
Fusarium oxysporum; 24 hour incubation
  MIC of individual compound alone (MIC (A) or MIC (B)): 0.00024063 mg/mL

## CCCCC=CCC(=O)O [3-Octenoic acid, 3-octenoic acid]
Botrytis cinerea; compound alone, 24 hour incubation
  MIC of individual compound alone (MIC (A) or MIC (B)): 0.1466 mg/mL

## CC=CCCC(=O)O [4-Hexenoic acid, 4-hexenoic acid]
Sclerotinia sclerotiorum; Sclerotinia sclerotiorum, […], Compound B (unsaturated aliphatic acid) alone, 7 days incubation
  MIC: 156 µg/mL

## C/C=C(/C)C(=O)O[C@H]1C[C@@H](OC(C)=O)[C@@]2(C)CO[C@H]3[C@H]4O[C@@H]5C[C@@H](c6ccoc6)C(C)=C5[C@@]4(C)[C@H](CC(=O)OC)[C@]1(C)[C@@H]32 [Salannin]
Botrytis cinerea; Botrytis cinerea, 48 h, individual compound alone, incubation 48 hours
  MIC: 50 µg/mL

## COC(=O)N(OC)c1ccccc1COc1ccn(-c2ccc(Cl)cc2)n1 [Pyraclostrobin, pyraclostrobin]
[1]
  solubility in 10% DMSO/90% PDB: 0.0154 mg/mL (≈ 39.7 µM)

## C/C=C/C=C/C(=O)[O-].[K+] [(2E,4E)-2,4-hexadienoic acid, potassium salt]
Fusarium oxysporum; 24 hour incubation
  MIC of individual compound alone (MIC (A) or MIC (B)): 0.625 mg/mL

## C=CCCCCCC(=O)O [7-Octenoic acid, 7-octenoic acid]
Fusarium oxysporum; 48 hours incubation
  MIC (B): 0.3125 mg/mL

## CCCC=CCC(=O)O [3-Heptenoic acid, 3-heptenoic acid]
Fusarium oxysporum; 48 hours incubation
  MIC of individual compound alone (MIC (A) or MIC (B)): 0.1562 mg/mL
Sclerotinia sclerotiorum
  MIC (B): 0.07812 mg/mL

## CCCCCCC=CCC(=O)O [3-Decenoic acid, 3-decenoic acid]
Fusarium oxysporum; 24 hour incubation
  MIC of individual compound alone (MIC (A) or MIC (B)): 0.07336 mg/mL
Fusarium oxysporum; 48 hours incubation
  MIC of individual compound alone (MIC (A) or MIC (B)): 0.3125 mg/mL and 0.07812 mg/mL
Botrytis cinerea; [4]
  MIC (B): 0.03906 mg/mL and 0.07812 mg/mL
Sclerotinia sclerotiorum
  MIC (B): 0.03906 mg/mL and 0.07812 mg/mL

## CC/C=C/CC(=O)O [Trans-3-hexenoic acid, trans-3-hexenoic acid]
Trichoplusia ni [2]; 0.05 mg/mL acid (salt)
  72 hr Obs. Efficacy: 0%
  90 hr Obs. Efficacy: 0%
  120 hr Obs. Efficacy: 0%
Trichoplusia ni [2]; 0.30 mg/mL acid (salt)
  72 hr Obs. Efficacy: 4%
  90 hr Obs. Efficacy: 4%
  120 hr Obs. Efficacy: 0%
Fusarium oxysporum; 48 hours incubation
  MIC (B): 0.1562 mg/mL
  MIC of individual compound alone (MIC (A) or MIC (B)): 0.3125 mg/mL
Fusarium oxysporum; 24 hour incubation
  MIC of individual compound alone (MIC (A) or MIC (B)): 0.3125 mg/mL
Sclerotinia sclerotiorum
  MIC (B): 0.1562 mg/mL

## CCCCCC=CCC(=O)O [3-Nonenoic acid, 3-nonenoic acid]
Sclerotinia sclerotiorum
  MIC (B): 0.03906 mg/mL and 0.07812 mg/mL and 0.1562 mg/mL

## C=CCCCC(=O)O [5-Hexenoic acid, 5-hexenoic acid]
Fusarium oxysporum; 48 hours incubation
  MIC (B): 0.1562 mg/mL
Sclerotinia sclerotiorum
  MIC (B): 0.1562 mg/mL

## C/C=C/C=C/C(=O)O [(2E,4E)-2,4-hexadienoic acid]
Fusarium oxysporum; 24 hour incubation
  MIC of individual compound alone (MIC (A) or MIC (B)): 0.125 mg/mL

## CCCCCCCC/C=C/C(=O)O [Trans-2-undecenoic acid, trans-2-undecenoic acid]
Sclerotinia sclerotiorum
  MIC (B): 0.07812 mg/mL

## CCCC/C=C/CC(=O)O [Trans-3-octenoic acid, trans-3-octenoic acid]
Fusarium oxysporum; 48 hours incubation
  MIC of individual compound alone (MIC (A) or MIC (B)): 0.1562 mg/mL

## C=CCCCCCCCC(=O)O [9-Decenoic acid, 9-decenoic acid]
Fusarium oxysporum; 24 hour incubation
  MIC of individual compound alone (MIC (A) or MIC (B)): 0.07172 mg/mL
Fusarium oxysporum; 48 hours incubation
  MIC of individual compound alone (MIC (A) or MIC (B)): 0.3125 mg/mL
Botrytis cinerea; [4]
  MIC (B): 0.07812 mg/mL
Sclerotinia sclerotiorum
  MIC (B): 0.03906 mg/mL and 0.07812 mg/mL

## CO/C=C(/C(=O)OC)c1ccccc1Oc1cc(Oc2ccccc2C#N)ncn1 [Azoxystrobin, reference compound]
Fusarium oxysporum; 48 hours incubation
  MIC of individual compound alone (MIC (A) or MIC (B)): 0.15 mg/mL
Sclerotinia sclerotiorum; compound alone, 7 days incubation
  MIC of individual compound alone (MIC (A) or MIC (B)): 0.15 mg/mL

## CCCCC/C=C/C(=O)O [Trans-2-octenoic acid, trans-2-octenoic acid]
Fusarium oxysporum; 48 hours incubation
  MIC (B): 0.1562 mg/mL

## CCC/C=C/C(=O)O [Trans-2-hexenoic acid, trans-2-hexenoic acid]
Trichoplusia ni [2]; 0.05 mg/mL acid (salt)
  72 hr Obs. Efficacy: 0%
  90 hr Obs. Efficacy: 0%
  120 hr Obs. Efficacy: 0%
Trichoplusia ni [2]; 0.30 mg/mL acid (salt)
  72 hr Obs. Efficacy: 0%
  90 hr Obs. Efficacy: 0%
  120 hr Obs. Efficacy: 0%
Fusarium oxysporum; 24 hour incubation
  MIC of individual compound alone (MIC (A) or MIC (B)): 0.3125 mg/mL
Trichoplusia ni [3]; after 48 hours
  Observed Efficacy (%): 0%
Trichoplusia ni [3]; after 72 hours
  Observed Efficacy (%): 0%
Sclerotinia sclerotiorum
  MIC (B): 0.07812 mg/mL

## CCCCCCC/C=C/C(=O)O [Trans-2-decenoic acid, trans-2-decenoic acid]
Fusarium oxysporum; 48 hours incubation
  MIC (B): 0.1562 mg/mL
Fusarium oxysporum; 48 hours incubation, listed as Trans-2-Decenoic acid
  MIC (B): 0.07812 mg/mL
Fusarium oxysporum; 24 hour incubation
  MIC of individual compound alone (MIC (A) or MIC (B)): 0.03625 mg/mL
